In ChEMBL document CHEMBL3734719, “Discovery of highly potent triazoleantifungal agents with piperidine-oxadiazole side chains” (2015):
Values after ≈ are worked out from the molar mass of the structure shown.

Columns and labels:
Format in all cases: functional
[1] = tested on: Candida albicans; assay: Antifungal activity against Candida albicans after 48 hrs by spectrophotometry
[2] = tested on: Candida parapsilosis; assay: Antifungal activity against Candida parapsilosis after 48 hrs by spectrophotometry; conditions: Lodderomyces parapsilosis
[3] = tested on: Cryptococcus neoformans; assay: Antifungal activity against Cryptococcus neoformans after 48 hrs by spectrophotometry
[4] = tested on: Nakaseomyces glabratus; assay: Antifungal activity against Candida glabrata after 48 hrs by spectrophotometry
[5] = tested on: Aspergillus fumigatus; assay: Antifungal activity against Aspergillus fumigatus after 48 hrs by spectrophotometry
[6] = tested on: Trichophyton rubrum; assay: Antifungal activity against Trichophyton rubrum after 48 hrs by spectrophotometry
[7] = tested on: Nannizzia gypsea; assay: Antifungal activity against Microsporum gypseum after 48 hrs by spectrophotometry
[8] = tested on: Candida albicans; assay: Antifungal activity against fluconazole-resistant Candida albicans 103 after 48 hrs by spectrophotometry; conditions: Candida albicans, 103, 48 h
[9] = tested on: Candida albicans; assay: Antifungal activity against fluconazole-resistant Candida albicans 805 after 48 hrs by spectrophotometry; conditions: Candida albicans, 805, 48 h
[10] = tested on: Candida albicans; assay: Antifungal activity against fluconazole-resistant Candida albicans 0710922 after 48 hrs by spectrophotometry; conditions: Candida albicans, 0710922, 48 h

Row | SMILES | MIC80 [1] [µg/mL] | MIC80 [2] [µg/mL] | MIC80 [3] [µg/mL] | MIC80 [4] [µg/mL] | MIC80 [5] [µg/mL] | MIC80 [6] [µg/mL] | MIC80 [7] [µg/mL] | MIC50 [8] [µg/mL] | MIC80 [8] [µg/mL] | MIC50 [9] [µg/mL] | MIC80 [9] [µg/mL] | MIC50 [10] [µg/mL] | MIC80 [10] [µg/mL]
1 | OC(CN1CCC(c2nc(-c3cccnc3)no2)CC1)(Cn1cncn1)c1ccc(F)cc1F (configuration not stated) | 0.063 (≈ 0.135 µM) | 0.25 (≈ 0.535 µM) | 0.125 (≈ 0.267 µM) | 0.125 (≈ 0.267 µM) | 0.125 (≈ 0.267 µM) | 1 (≈ 2.14 µM) | 0.5 (≈ 1.07 µM) | – | – | – | – | – | –
2 | Cc1cccc(-c2nnc(C3CCN(CC(O)(Cn4cncn4)c4ccc(F)cc4F)CC3)o2)c1 (configuration not stated) | 0.25 (≈ 0.52 µM) | 2 (≈ 4.16 µM) | 1 (≈ 2.08 µM) | 2 (≈ 4.16 µM) | 2 (≈ 4.16 µM) | 2 (≈ 4.16 µM) | 0.5 (≈ 1.04 µM) | – | – | – | – | – | –
3 | OC(Cn1cncn1)(Cn1cncn1)c1ccc(F)cc1F [FLUCONAZOLE] | 0.25 (≈ 0.816 µM) | 2 (≈ 6.53 µM) | 0.25 (≈ 0.816 µM) | 4 (≈ 13.1 µM) | 4 (≈ 13.1 µM) | 2 (≈ 6.53 µM) | 32 (≈ 104 µM) | 256 (≈ 836 µM) | > 1020 | 256 (≈ 836 µM) | > 1020 | 512 (≈ 1670 µM) | > 1020
4 | OC(CN1CCC(c2nnc(-c3c(F)cccc3F)o2)CC1)(Cn1cncn1)c1ccc(F)cc1F (configuration not stated) | 0.063 (≈ 0.125 µM) | 0.5 (≈ 0.995 µM) | ≤ 0.125 | 0.5 (≈ 0.995 µM) | 0.5 (≈ 0.995 µM) | 2 (≈ 3.98 µM) | 2 (≈ 3.98 µM) | – | – | – | – | – | –
5 | OC(CN1CCC(c2nc(-c3cccs3)no2)CC1)(Cn1cncn1)c1ccc(F)cc1F (configuration not stated) | 0.063 (≈ 0.133 µM) | 2 (≈ 4.23 µM) | 1 (≈ 2.12 µM) | 2 (≈ 4.23 µM) | 2 (≈ 4.23 µM) | 1 (≈ 2.12 µM) | 2 (≈ 4.23 µM) | – | – | – | – | – | –
6 | OC(CN1CCC(c2nc(-c3ccsc3)no2)CC1)(Cn1cncn1)c1ccc(F)cc1F (configuration not stated) | 0.5 (≈ 1.06 µM) | 4 (≈ 8.47 µM) | 2 (≈ 4.23 µM) | 4 (≈ 8.47 µM) | 4 (≈ 8.47 µM) | 4 (≈ 8.47 µM) | 4 (≈ 8.47 µM) | – | – | – | – | – | –
7 | OC(CN1CCC(c2nnc(-c3ccccc3)o2)CC1)(Cn1cncn1)c1ccc(F)cc1F (configuration not stated) | 0.125 (≈ 0.268 µM) | 0.5 (≈ 1.07 µM) | 0.25 (≈ 0.536 µM) | 2 (≈ 4.29 µM) | 2 (≈ 4.29 µM) | 1 (≈ 2.14 µM) | 1 (≈ 2.14 µM) | – | – | – | – | – | –
8 | OC(CN1CCC(c2nc(-c3ccc(C(F)(F)F)cc3F)no2)CC1)(Cn1cncn1)c1ccc(F)cc1F (configuration not stated) | 1 (≈ 1.81 µM) | 2 (≈ 3.62 µM) | 2 (≈ 3.62 µM) | 4 (≈ 7.24 µM) | 4 (≈ 7.24 µM) | 1 (≈ 1.81 µM) | 0.5 (≈ 0.905 µM) | – | – | – | – | – | –
9 | OC(CN1CCC(c2nnc(-c3ccc(Cl)cc3)o2)CC1)(Cn1cncn1)c1ccc(F)cc1F (configuration not stated) | 0.5 (≈ 0.998 µM) | 4 (≈ 7.99 µM) | 1 (≈ 2 µM) | 8 (≈ 16 µM) | 8 (≈ 16 µM) | 8 (≈ 16 µM) | 64 (≈ 128 µM) | – | – | – | – | – | –
10 | Cc1ccc(-c2noc(C3CCN(CC(O)(Cn4cncn4)c4ccc(F)cc4F)CC3)n2)cc1 (configuration not stated) | 0.5 (≈ 1.04 µM) | 2 (≈ 4.16 µM) | 4 (≈ 8.32 µM) | 4 (≈ 8.32 µM) | 4 (≈ 8.32 µM) | 2 (≈ 4.16 µM) | 8 (≈ 16.6 µM) | – | – | – | – | – | –
11 | CCc1ccc(-c2nnc(C3CCN(CC(O)(Cn4cncn4)c4ccc(F)cc4F)CC3)o2)cc1 (configuration not stated) | 0.5 (≈ 1.01 µM) | 2 (≈ 4.04 µM) | 2 (≈ 4.04 µM) | 4 (≈ 8.09 µM) | 4 (≈ 8.09 µM) | 4 (≈ 8.09 µM) | 4 (≈ 8.09 µM) | – | – | – | – | – | –
12 | OC(CN1CCC(c2nc(-c3ccc(C(F)(F)F)cc3)no2)CC1)(Cn1cncn1)c1ccc(F)cc1F (configuration not stated) | 0.5 (≈ 0.935 µM) | 4 (≈ 7.48 µM) | 2 (≈ 3.74 µM) | 2 (≈ 3.74 µM) | 2 (≈ 3.74 µM) | 4 (≈ 7.48 µM) | 2 (≈ 3.74 µM) | – | – | – | – | – | –
13 | Cc1ccccc1-c1nnc(C2CCN(CC(O)(Cn3cncn3)c3ccc(F)cc3F)CC2)o1 (configuration not stated) | 0.125 (≈ 0.26 µM) | 4 (≈ 8.32 µM) | 4 (≈ 8.32 µM) | 8 (≈ 16.6 µM) | 8 (≈ 16.6 µM) | 16 (≈ 33.3 µM) | 16 (≈ 33.3 µM) | – | – | – | – | – | –
